From patent US20240409585A1, “MACROCYCLIC IMMUNOMODULATORS” (priority 2021, published 2024)
Bridge positions count the residues as written; N and C are the ends. Square brackets hold non-standard residues; d marks the D form. Peptide text beside a SMILES is read from it. * marks the point of attachment. ξ: configuration not given here. Phe(4-COOH) = N[C@@H](Cc1ccc(C(=O)O)cc1)C(=O)O; Bip = N[C@@H](Cc1ccc(-c2ccccc2)cc1)C(=O)O; Phe(3-Me) = Cc1cccc(C[C@H](N)C(=O)O)c1; 4Pal = N[C@@H](Cc1ccncc1)C(=O)O; Cha = N[C@@H](CC1CCCCC1)C(=O)O; Cit = NC(=O)NCCC[C@H](N)C(=O)O; Ile(3ξ) = CCC(C)[C@H](N)C(=O)O; Pip = O=C(O)[C@@H]1CCCCN1; Carboxymethyl = O=C(O)C*; NMeA = CN[C@@H](C)C(=O)O; Orn = NCCC[C@H](N)C(=O)O; Dab = NCC[C@H](N)C(=O)O; Dap = NC[C@H](N)C(=O)O

The molecules below were run against T1, PE-labeled human PD-L1-Ig binding to Jurkat cell line over-expressing human PD-1 (Jurkat-PD-1) (Homo sapiens, UniProt Q15116) (assay: Jurkat-PD-1 Cell Binding High-Content Screening Assay (CBA): Method 1). Conditions: Jurkat-hPD-1 cells, PE-labeled PD-L1-Ig 20 nM final; read-out: Jurkat HPDL1 PD1 IC50 (uM) (Method 1).
T1 construct: expressed in transfected cells; host or cells: Jurkat
T1 sequence (Q15116 25-288): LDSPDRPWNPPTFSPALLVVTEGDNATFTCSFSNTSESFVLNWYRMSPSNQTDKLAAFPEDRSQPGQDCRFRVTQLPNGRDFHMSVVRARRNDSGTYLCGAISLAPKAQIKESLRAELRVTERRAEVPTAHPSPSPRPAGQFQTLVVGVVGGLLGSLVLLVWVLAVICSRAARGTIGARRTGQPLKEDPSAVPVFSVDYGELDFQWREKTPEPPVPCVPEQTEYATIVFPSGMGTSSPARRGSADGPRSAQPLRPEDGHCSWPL

IC50 [µM] | SMILES
0.15 | Cc1cccc(C[C@@H]2NC(=O)[C@H](CC(=O)O)NC(=O)[C@H](Cc3ccc(OCC(=O)O)cc3)NC(=O)[C@H](CN)NC(=O)CSC[C@@H](C(N)=O)NC(=O)[C@H](CCCN)NC(=O)[C@H](C(C)C)NC(=O)[C@H](CC3CCCCC3)NC(=O)[C@H](CCN)NC(=O)[C@@H](CC(C)C)NC(=O)[C@@H]3CCCCN3C(=O)[C@H](Cc3ccc(OCC(=O)O)cc3)NC(=O)[C@H](Cc3ccc(-c4ccccc4)cc3)NC(=O)[C@H](Cc3ccc(OCC(=O)O)cc3)NC2=O)c1 [Compound 1890] ({CH2CO}-[Dap]Y(Carboxymethyl)D[Phe(3-Me)]Y(Carboxymethyl)[Bip]Y(Carboxymethyl)[Pip][dL][Dab][Cha]V[Orn]C-NH2; thioether N-14)
0.15 | Cc1cccc(C[C@@H]2NC(=O)[C@H](CC(=O)O)NC(=O)[C@H](Cc3ccc(OCC(=O)O)cc3)NC(=O)[C@H](CN)NC(=O)CSC[C@@H](C(N)=O)NC(=O)[C@H]([C@@H](C)O)NC(=O)[C@H](C(C)C)NC(=O)[C@H](CC3CCCCC3)NC(=O)[C@H](CCN)NC(=O)[C@@H](CC(C)C)NC(=O)[C@@H]3CCCCN3C(=O)[C@H](Cc3ccc(OCC(=O)O)cc3)NC(=O)[C@H](Cc3ccc(-c4ccccc4)cc3)NC(=O)[C@H](Cc3ccc(OCC(=O)O)cc3)NC2=O)c1 [Compound 1891] ({CH2CO}-[Dap]Y(Carboxymethyl)D[Phe(3-Me)]Y(Carboxymethyl)[Bip]Y(Carboxymethyl)[Pip][dL][Dab][Cha]VTC-NH2; thioether N-14)
0.06 | Cc1cccc(C[C@@H]2NC(=O)[C@H](CC(=O)O)NC(=O)[C@H](Cc3ccc(OCC(=O)O)cc3)NC(=O)[C@H](CN)NC(=O)CSC[C@@H](C(N)=O)NC(=O)[C@H](CO)NC(=O)[C@H](C(C)C)NC(=O)[C@H](CC3CCCCC3)NC(=O)[C@H](CCN)NC(=O)[C@@H](CC(C)C)NC(=O)[C@@H]3CCCCN3C(=O)[C@H](Cc3ccc(OCC(=O)O)cc3)NC(=O)[C@H](Cc3ccc(-c4ccccc4)cc3)NC(=O)[C@H](Cc3ccc(OCC(=O)O)cc3)NC2=O)c1 [Compound 1892] ({CH2CO}-[Dap]Y(Carboxymethyl)D[Phe(3-Me)]Y(Carboxymethyl)[Bip]Y(Carboxymethyl)[Pip][dL][Dab][Cha]VSC-NH2; thioether N-14)
0.26 | Cc1cccc(C[C@@H]2NC(=O)[C@H](CC(=O)O)NC(=O)[C@H](Cc3ccc(OCC(=O)O)cc3)NC(=O)[C@H](CN)NC(=O)CSC[C@@H](C(N)=O)NC(=O)[C@H](CC(=O)O)NC(=O)[C@H](C(C)C)NC(=O)[C@H](CC3CCCCC3)NC(=O)[C@H](CCN)NC(=O)[C@@H](CC(C)C)NC(=O)[C@@H]3CCCCN3C(=O)[C@H](Cc3ccc(OCC(=O)O)cc3)NC(=O)[C@H](Cc3ccc(-c4ccccc4)cc3)NC(=O)[C@H](Cc3ccc(OCC(=O)O)cc3)NC2=O)c1 [Compound 1893] ({CH2CO}-[Dap]Y(Carboxymethyl)D[Phe(3-Me)]Y(Carboxymethyl)[Bip]Y(Carboxymethyl)[Pip][dL][Dab][Cha]VDC-NH2; thioether N-14)
0.3 | Cc1cccc(C[C@@H]2NC(=O)[C@H](CC(=O)O)NC(=O)[C@H](Cc3ccc(OCC(=O)O)cc3)NC(=O)[C@H](CN)NC(=O)CSC[C@@H](C(N)=O)NC(=O)[C@H](CCC(=O)O)NC(=O)[C@H](C(C)C)NC(=O)[C@H](CC3CCCCC3)NC(=O)[C@H](CCN)NC(=O)[C@@H](CC(C)C)NC(=O)[C@@H]3CCCCN3C(=O)[C@H](Cc3ccc(OCC(=O)O)cc3)NC(=O)[C@H](Cc3ccc(-c4ccccc4)cc3)NC(=O)[C@H](Cc3ccc(OCC(=O)O)cc3)NC2=O)c1 [Compound 1894] ({CH2CO}-[Dap]Y(Carboxymethyl)D[Phe(3-Me)]Y(Carboxymethyl)[Bip]Y(Carboxymethyl)[Pip][dL][Dab][Cha]VEC-NH2; thioether N-14)
0.11 | Cc1cccc(C[C@@H]2NC(=O)[C@H](CC(=O)O)NC(=O)[C@H](Cc3ccc(OCC(=O)O)cc3)NC(=O)[C@H](CN)NC(=O)CSC[C@@H](C(N)=O)NC(=O)[C@H](CC(N)=O)NC(=O)[C@H](C(C)C)NC(=O)[C@H](CC3CCCCC3)NC(=O)[C@H](CCN)NC(=O)[C@@H](CC(C)C)NC(=O)[C@@H]3CCCCN3C(=O)[C@H](Cc3ccc(OCC(=O)O)cc3)NC(=O)[C@H](Cc3ccc(-c4ccccc4)cc3)NC(=O)[C@H](Cc3ccc(OCC(=O)O)cc3)NC2=O)c1 [Compound 1895] ({CH2CO}-[Dap]Y(Carboxymethyl)D[Phe(3-Me)]Y(Carboxymethyl)[Bip]Y(Carboxymethyl)[Pip][dL][Dab][Cha]VNC-NH2; thioether N-14)
0.19 | Cc1cccc(C[C@@H]2NC(=O)[C@H](CC(=O)O)NC(=O)[C@H](Cc3ccc(OCC(=O)O)cc3)NC(=O)[C@H](CN)NC(=O)CSC[C@@H](C(N)=O)NC(=O)[C@H](CCC(N)=O)NC(=O)[C@H](C(C)C)NC(=O)[C@H](CC3CCCCC3)NC(=O)[C@H](CCN)NC(=O)[C@@H](CC(C)C)NC(=O)[C@@H]3CCCCN3C(=O)[C@H](Cc3ccc(OCC(=O)O)cc3)NC(=O)[C@H](Cc3ccc(-c4ccccc4)cc3)NC(=O)[C@H](Cc3ccc(OCC(=O)O)cc3)NC2=O)c1 [Compound 1896] ({CH2CO}-[Dap]Y(Carboxymethyl)D[Phe(3-Me)]Y(Carboxymethyl)[Bip]Y(Carboxymethyl)[Pip][dL][Dab][Cha]VQC-NH2; thioether N-14)
0.01 | Cc1cccc(C[C@@H]2NC(=O)[C@H](CC(=O)O)NC(=O)[C@H](Cc3ccc(C(=O)O)cc3)NC(=O)[C@H](Cc3ccncc3)NC(=O)CSC[C@@H](C(N)=O)NC(=O)[C@H](CCCN)NC(=O)[C@H](C(C)C)NC(=O)[C@H](CC3CCCCC3)NC(=O)[C@H](CCN)NC(=O)[C@@H](CC(C)C)NC(=O)[C@H](C)N(C)C(=O)[C@H](CCCNC(N)=O)NC(=O)[C@H](Cc3ccc(-c4ccccc4)cc3)NC(=O)[C@H](C(C)C)NC2=O)c1 [Compound 1897] ({CH2CO}-[4Pal][Phe(4-COOH)]D[Phe(3-Me)]V[Bip][Cit][NMeA][dL][Dab][Cha]V[Orn]C-NH2; thioether N-14)
0.07 | Cc1cccc(C[C@@H]2NC(=O)[C@H](CC(=O)O)NC(=O)[C@H](Cc3ccc(C(=O)O)cc3)NC(=O)[C@H](Cc3ccncc3)NC(=O)CSC[C@@H](C(N)=O)NC(=O)[C@H]([C@@H](C)O)NC(=O)[C@H](C(C)C)NC(=O)[C@H](CC(C)C)NC(=O)[C@H](CCN)NC(=O)[C@@H](CC(C)C)NC(=O)[C@H](C)N(C)C(=O)[C@H](CCCNC(N)=O)NC(=O)[C@H](Cc3ccc(-c4ccccc4)cc3)NC(=O)[C@H](C(C)C)NC2=O)c1 [Compound 1898] ({CH2CO}-[4Pal][Phe(4-COOH)]D[Phe(3-Me)]V[Bip][Cit][NMeA][dL][Dab]LVTC-NH2; thioether N-14)
0.01 | CCC(C)[C@@H]1NC(=O)[C@H](Cc2ccc(-c3ccccc3)cc2)NC(=O)[C@H](C(C)C)NC(=O)[C@H](Cc2cccc(C)c2)NC(=O)[C@H](CC(=O)O)NC(=O)[C@H](Cc2ccc(C(=O)O)cc2)NC(=O)[C@H](Cc2ccncc2)NC(=O)CSC[C@@H](C(N)=O)NC(=O)[C@H](CCCN)NC(=O)[C@H](C(C)C)NC(=O)[C@H](CC2CCCCC2)NC(=O)[C@H](CCN)NC(=O)[C@@H](CC(C)C)NC(=O)[C@H](C)N(C)C1=O (stereo partly drawn) [Compound 1899] ({CH2CO}-[4Pal][Phe(4-COOH)]D[Phe(3-Me)]V[Bip][Ile(3ξ)][NMeA][dL][Dab][Cha]V[Orn]C-NH2; thioether N-14)
0.05 | CCC(C)[C@@H]1NC(=O)[C@H](Cc2ccc(-c3ccccc3)cc2)NC(=O)[C@H](C(C)C)NC(=O)[C@H](Cc2cccc(C)c2)NC(=O)[C@H](CC(=O)O)NC(=O)[C@H](Cc2ccc(C(=O)O)cc2)NC(=O)[C@H](Cc2ccncc2)NC(=O)CSC[C@@H](C(N)=O)NC(=O)[C@H](CCCN)NC(=O)[C@H](C(C)C)NC(=O)[C@H](CC(C)C)NC(=O)[C@H](CCN)NC(=O)[C@@H](CC(C)C)NC(=O)[C@H](C)N(C)C1=O (stereo partly drawn) [Compound 1900] ({CH2CO}-[4Pal][Phe(4-COOH)]D[Phe(3-Me)]V[Bip][Ile(3ξ)][NMeA][dL][Dab]LV[Orn]C-NH2; thioether N-14)
0.01 | CC(C)C[C@@H]1NC(=O)[C@H](Cc2c[nH]c3ccccc23)NC(=O)[C@H](CC(=O)O)NC(=O)[C@H](Cc2ccncc2)NC(=O)[C@H](Cc2ccc(OCC(=O)O)cc2)NC(=O)CSC[C@@H](C(=O)N[C@@H](CC(N)=O)C(N)=O)NC(=O)[C@H](CO)NC(=O)[C@H](C(C)C)NC(=O)[C@H](CC2CCCCC2)NC(=O)[C@H](CCN)NC(=O)[C@@H](CC(C)C)NC(=O)[C@H](C)N(C)C(=O)[C@H](C(C)C)NC(=O)[C@H](Cc2ccc(-c3ccccc3)cc2)NC1=O [Compound 1901] ({CH2CO}-Y(Carboxymethyl)[4Pal]DWL[Bip]V[NMeA][dL][Dab][Cha]VSCN-NH2; thioether N-14)
0.01 | CC(C)C[C@@H]1NC(=O)[C@H](Cc2c[nH]c3ccccc23)NC(=O)[C@H](CC(=O)O)NC(=O)[C@H](Cc2ccncc2)NC(=O)[C@H](Cc2ccc(OCC(=O)O)cc2)NC(=O)CSC[C@@H](C(=O)N[C@@H](CC(N)=O)C(N)=O)NC(=O)[C@H]([C@@H](C)O)NC(=O)[C@H](C(C)C)NC(=O)[C@H](CC2CCCCC2)NC(=O)[C@H](CCN)NC(=O)[C@@H](CC(C)C)NC(=O)[C@H](C)N(C)C(=O)[C@H](C(C)C)NC(=O)[C@H](Cc2ccc(-c3ccccc3)cc2)NC1=O [Compound 1902] ({CH2CO}-Y(Carboxymethyl)[4Pal]DWL[Bip]V[NMeA][dL][Dab][Cha]VTCN-NH2; thioether N-14)
0.04 | CC(C)C[C@@H]1NC(=O)[C@H](Cc2c[nH]c3ccccc23)NC(=O)[C@H](CC(=O)O)NC(=O)[C@H](Cc2ccncc2)NC(=O)[C@H](Cc2ccc(OCC(=O)O)cc2)NC(=O)CSC[C@@H](C(=O)N[C@H](CC(N)=O)C(N)=O)NC(=O)[C@H]([C@@H](C)O)NC(=O)[C@H](C(C)C)NC(=O)[C@H](CC2CCCCC2)NC(=O)[C@H](CCN)NC(=O)[C@@H](CC(C)C)NC(=O)[C@H](C)N(C)C(=O)[C@H](C(C)C)NC(=O)[C@H](Cc2ccc(-c3ccccc3)cc2)NC1=O [Compound 1903] ({CH2CO}-Y(Carboxymethyl)[4Pal]DWL[Bip]V[NMeA][dL][Dab][Cha]VTC[dN]-NH2; thioether N-14)
